Test results from patent US7166738B2, “Non-nucleoside reverse transcriptase inhibitors” (Roche Palo Alto LLC, priority 2004, dated 2007).

melting point [°C]	SMILES
213.2 to 219.6	CCc1ccc(CC(=O)Nc2ccc(S(N)(=O)=O)cc2C)cc1Oc1cc(Cl)cc(Br)c1Cl [Compound I-36, 2-[3-(3-Bromo-2,5-dichloro-phenoxy)-4-ethyl-phenyl]-N-(2-methyl-4-sulfamoyl-phenyl)-acetamide]
146.5 to 147.6	CCc1ccc(CC(=O)Nc2ccccc2Cl)cc1Oc1cc(Cl)cc(Br)c1Cl [Compound I-37, 2-[3-(3-Bromo-2,5-dichloro-phenoxy)-4-ethyl-phenyl]-N-(2-chloro-phenyl)-acetamide]
155.5 to 155.8	CCc1ccc(CC(=O)Nc2ccccc2Cl)cc1Oc1cc(Br)cc(Br)c1Cl [Compound I-38, N-(2-Chloro-phenyl)-2-[3-(3,5-dibromo-2-chloro-phenoxy)-4-ethyl-phenyl]-acetamide]
209.9 to 211.1	CCc1ccc(CC(=O)Nc2ccc(S(N)(=O)=O)cc2)cc1Oc1cc(Br)cc(F)c1Cl [Compound I-39, 2-[3-(5-Bromo-2-chloro-3-fluoro-phenoxy)-4-ethyl-phenyl]-N-(4-sulfamoyl-phenyl)-acetamide]
207 to 209.9	CCc1ccc(CC(=O)Nc2ccc(S(N)(=O)=O)cc2C)cc1Oc1cc(Br)cc(F)c1Cl [Compound I-40, 2-[3-(5-Bromo-2-chloro-3-fluoro-phenoxy)-4-ethyl-phenyl]-N-(2-methyl-4-sulfamoyl-phenyl)-acetamide]
146.6 to 147.2	CCc1ccc(CC(=O)Nc2ccccc2Cl)cc1Oc1cc(Br)cc(F)c1Cl [Compound I-41, 2-[3-(5-Bromo-2-chloro-3-fluoro-phenoxy)-4-ethyl-phenyl]-N-(2-chloro-phenyl)-acetamide]
228.6 to 230.9	Cc1cc(S(N)(=O)=O)ccc1NC(=O)Cc1ccc(C)c(Oc2cc(C#N)cc(C#N)c2)c1 [Compound I-43, 2-[3-(3,5-Dicyano-phenoxy)-4-methyl-phenyl]-N-(2-methyl-4-sulfamoyl-phenyl)-acetamide]
209.9 to 211.5	Cc1ccc(CC(=O)Nc2ccc(S(N)(=O)=O)cc2Cl)cc1Oc1cc(C#N)cc(C#N)c1 [Compound I-44, N-(2-Chloro-4-sulfamoyl-phenyl)-2-[3-(3,5-dicyano-phenoxy)-4-methyl-phenyl]-acetamide]
170.7 to 172.4	CCc1ccc(CC(=O)Nc2ccc(S(N)(=O)=O)cc2)cc1Oc1cc(Cl)cc(C#N)c1 [Compound I-45, 2-[3-(3-Chloro-5-cyano-phenoxy)-4-ethyl-phenyl]-N-(4-sulfamoyl-phenyl)-acetamide]
189.1 to 189.4	CCc1ccc(CC(=O)Nc2ccc(S(N)(=O)=O)cc2C)cc1Oc1cc(Cl)cc(C#N)c1 [Compound I-46, 2-[3-(3-Chloro-5-cyano-phenoxy)-4-ethyl-phenyl]-N-(2-methyl-4-sulfamoyl-phenyl)-acetamide]
181.1 to 183.9	CCc1ccc(CC(=O)Nc2ccc(S(N)(=O)=O)cc2Cl)cc1Oc1cc(Cl)cc(C#N)c1 [Compound I-47, 2-[3-(3-Chloro-5-cyano-phenoxy)-4-ethyl-phenyl]-N-(2-chloro-4-sulfamoyl-phenyl)-acetamide]
149.1 to 151.3	CCc1ccc(CC(=O)Nc2ccc(S(=O)(=O)NC)cc2)cc1Oc1cc(Cl)cc(C#N)c1 [Compound I-48, 2-[3-(3-Chloro-5-cyano-phenoxy)-4-ethyl-phenyl]-N-(4-methylsulfamoyl-phenyl)-acetamide]
167.9 to 170.5	CCc1ccc(CC(=O)Nc2ccc(S(N)(=O)=O)cc2)cc1Oc1cc(C#N)cc(F)c1Cl [Compound I-49, 2-[3-(2-Chloro-5-cyano-3-fluoro-phenoxy)-4-ethyl-phenyl]-N-(4-sulfamoyl-phenyl)-acetamide]
217.6 to 220.4	CCc1ccc(CC(=O)Nc2ccc(S(N)(=O)=O)cc2C)cc1Oc1cc(C#N)cc(F)c1Cl [Compound I-50, 2-[3-(2-Chloro-5-cyano-3-fluoro-phenoxy)-4-ethyl-phenyl]-N-(2-methyl-4-sulfamoyl-phenyl)-acetamide]
119.7 to 123.3	CCc1ccc(CC(=O)Nc2ccc(S(N)(=O)=O)cc2)cc1Oc1cc(C#N)cc(C#N)c1Cl [Compound I-52, 2-[3-(2-Chloro-3,5-dicyano-phenoxy)-4-ethyl-phenyl]-N-(4-sulfamoyl-phenyl)-acetamide]
199.4 to 205.3	CCc1ccc(CC(=O)Nc2ccc(S(N)(=O)=O)cc2C)cc1Oc1cc(C#N)cc(C#N)c1Cl [Compound I-53, 2-[3-(2-Chloro-3,5-dicyano-phenoxy)-4-ethyl-phenyl]-N-(2-methyl-4-sulfamoyl-phenyl)-acetamide]
180.3 to 183.1	CCc1ccc(CC(=O)Nc2ccc(S(N)(=O)=O)cc2Cl)cc1Oc1cc(C#N)cc(C#N)c1Cl [Compound I-54, 2-[3-(2-Chloro-3,5-dicyano-phenoxy)-4-ethyl-phenyl]-N-(2-chloro-4-sulfamoyl-phenyl)-acetamide]
227.3 to 231.4	Cc1cc(C#N)cc(C)c1Oc1cc(CC(=O)Nc2ccc(S(N)(=O)=O)cc2)ccc1Cl [Compound I-55, 2-[4-Chloro-3-(4-cyano-2,6-dimethyl-phenoxy)-phenyl]-N-(4-sulfamoyl-phenyl)-acetamide]

melting point [°C]	SMILES
232.1 to 234.6	Cc1cc(S(N)(=O)=O)ccc1NC(=O)Cc1ccc(Cl)c(Oc2c(C)cc(C#N)cc2C)c1 [Compound I-56, 2-[4-Chloro-3-(4-cyano-2,6-dimethyl-phenoxy)-phenyl]-N-(2-methyl-4-sulfamoyl-phenyl)-acetamide]
218.3 to 221.4	COc1ccc(CC(=O)Nc2ccc(S(N)(=O)=O)cc2)cc1Oc1cc(Cl)cc(C#N)c1 [Compound I-57, 2-[3-(3-Chloro-5-cyano-phenoxy)-4-methoxy-phenyl]-N-(4-sulfamoyl-phenyl)-acetamide]
142.1 to 142.8	CCc1ccc(CC(=O)Nc2ccccc2Cl)cc1Oc1cc(C#N)cc(F)c1Cl [Compound I-59, 2-[3-(2-Chloro-5-cyano-3-fluoro-phenoxy)-4-ethyl-phenyl]-N-(2-chloro-phenyl)-acetamide]
110 to 111.5	CCc1ccc(CC(=O)Nc2ccccc2Cl)cc1Oc1cc(C#N)cc(C#N)c1Cl [Compound I-60, 2-[3-(2-Chloro-3,5-dicyano-phenoxy)-4-ethyl-phenyl]-N-(2-chloro-phenyl)-acetamide]
175.7 to 178.3	COc1ccc(CC(=O)Nc2ccccc2Cl)cc1Oc1cc(Cl)cc(C#N)c1 [Compound I-61, 2-[3-(3-Chloro-5-cyano-phenoxy)-4-methoxy-phenyl]-N-(2-chloro-phenyl)-acetamide]
194 to 197.8	COc1ccc(CC(=O)Nc2ccccc2Cl)cc1Oc1cc(C#N)ccc1Cl [Compound I-62, 2-[3-(2-Chloro-5-cyano-phenoxy)-4-methoxy-phenyl]-N-(2-chloro-phenyl)-acetamide]
186.3 to 189.7	COc1ccc(CC(=O)Nc2ccc(S(N)(=O)=O)cc2Cl)cc1Oc1cc(Cl)cc(C#N)c1 [Compound I-64, 2-[3-(3-Chloro-5-cyano-phenoxy)-4-methoxy-phenyl]-N-(2-chloro-4-sulfamoyl-phenyl)-acetamide]
252.3 to 254.3	COc1ccc(CC(=O)Nc2ccc(S(N)(=O)=O)cc2)cc1Oc1cc(C#N)ccc1Cl [Compound I-65, 2-[3-(2-Chloro-5-cyano-phenoxy)-4-methoxy-phenyl]-N-(4-sulfamoyl-phenyl)-acetamide]
232.9 to 236.9	COc1ccc(CC(=O)Nc2ccc(S(N)(=O)=O)cc2C)cc1Oc1cc(C#N)ccc1Cl [Compound I-66, 2-[3-(2-Chloro-5-cyano-phenoxy)-4-methoxy-phenyl]-N-(2-methyl-4-sulfamoyl-phenyl)-acetamide]
214.6 to 216.4	COc1ccc(CC(=O)Nc2ccc(S(N)(=O)=O)cc2Cl)cc1Oc1cc(C#N)ccc1Cl [Compound I-67, 2-[3-(2-Chloro-5-cyano-phenoxy)-4-methoxy-phenyl]-N-(2-chloro-4-sulfamoyl-phenyl)-acetamide]
183.9 to 185.1	Cc1cc(C#N)cc(C)c1Oc1cc(CC(=O)Nc2ccccc2Cl)ccc1Cl [Compound I-68, 2-[4-Chloro-3-(4-cyano-2,6-dimethyl-phenoxy)-phenyl]-N-(2-chloro-phenyl)-acetamide]
222.3 to 224.3	COc1ccc(CC(=O)Nc2ccc(S(N)(=O)=O)cc2C)cc1Oc1cc(Cl)cc(C#N)c1 [Compound I-73, 2-[3-(3-Chloro-5-cyano-phenoxy)-4-methoxy-phenyl]-N-(2-methyl-4-sulfamoyl-phenyl)-acetamide]
230 to 232.2	Cc1cc(S(N)(=O)=O)ccc1NC(=O)Cc1ccc(C)c(Oc2cc(Cl)cc(C#N)c2)c1F [Compound I-74, 2-[3-(3-Chloro-5-cyano-phenoxy)-2-fluoro-4-methyl-phenyl]-N-(2-methyl-4-sulfamoyl-phenyl)-acetamide]
218 to 220.4	Cc1cc(S(N)(=O)=O)ccc1NC(=O)Cc1ccc(C)c(Oc2cc(C#N)cc(C(F)F)c2)c1F [Compound I-85, 2-[3-(3-Cyano-5-difluoromethyl-phenoxy)-2-fluoro-4-methyl-phenyl]-N-(2-methyl-4-sulfamoyl-phenyl)-acetamide]
163.3 to 164.4	Cc1ccc(CC(=O)Nc2ccccc2Cl)c(F)c1Oc1cc(C#N)cc(C(F)F)c1 [Compound I-86, N-(2-Chloro-phenyl)-2-[3-(3-cyano-5-difluoromethyl-phenoxy)-2-fluoro-4-methyl-phenyl]-acetamide]
219 to 221.4	N#Cc1cc(Oc2cc(CC(=O)Nc3ccc(S(N)(=O)=O)cc3)ccc2Cl)cc(C(F)(F)F)c1 [Compound I-88, 2-[4-Chloro-3-(3-cyano-5-trifluoromethyl-phenoxy)-phenyl]-N-(4-sulfamoyl-phenyl)-acetamide]
211.6 to 214.6	Cc1cc(S(N)(=O)=O)ccc1NC(=O)Cc1ccc(Cl)c(Oc2cc(C#N)cc(C(F)(F)F)c2)c1 [Compound I-89, 2-[4-Chloro-3-(3-cyano-5-trifluoromethyl-phenoxy)-phenyl]-N-(2-methyl-4-sulfamoyl-phenyl)-acetamide]
198 to 202	N#Cc1cc(Oc2cc(CC(=O)Nc3ccc(S(N)(=O)=O)cc3Cl)ccc2Cl)cc(C(F)(F)F)c1 [Compound I-90, 2-[4-Chloro-3-(3-cyano-5-trifluoromethyl-phenoxy)-phenyl]-N-(2-chloro-4-sulfamoyl-phenyl)-acetamide]
